Source: ChEMBL document CHEMBL1140860, “Synthesis and evaluation of dihydroartemisinin and dihydroartemisitene acetal dimers showing anticancer and antiprotozoal activity” (Bioorg Med Chem, 2009)

What was measured:
HCT-15 = experiment: Growth inhibition of human HCT15 cells after 48 hrs by sulforhodamine B assay; type: functional; settings: HCT-15, 48 h
KM12 = experiment: Growth inhibition of human KM12 cells after 48 hrs by sulforhodamine B assay; type: functional; settings: KM12, 48 h
Malme-3M = experiment: Growth inhibition of human MALME-3M cells after 48 hrs by sulforhodamine B assay; type: functional
OVCAR-8 = experiment: Growth inhibition of human OVCAR8 cells after 48 hrs by sulforhodamine B assay; type: functional; settings: OVCAR-8, 48 h
HOP-92 = experiment: Growth inhibition of human HOP92 cells after 48 hrs by sulforhodamine B assay; type: functional; settings: HOP-92, 48 h
SN12C = experiment: Growth inhibition of human SN12C cells after 48 hrs by sulforhodamine B assay; type: functional
[1] = Selectivity index, ratio of TC50 for african green monkey (Cercopithecus aethiops) Vero cells to IC50 for chloroquine-resistant Plasmodium falciparum W2; type: toxicity, cell-based
SK-OV-3 = experiment: Growth inhibition of human SKOV3 cells after 48 hrs by sulforhodamine B assay; type: functional; settings: SK-OV-3, 48 h
SF-295 = experiment: Growth inhibition of human SF295 cells after 48 hrs by sulforhodamine B assay; type: functional; settings: SF-295, 48 h
HCC 2998 = experiment: Growth inhibition of human HCC2998 cells after 48 hrs by sulforhodamine B assay; type: functional; settings: HCC 2998, 48 h
HL-60 = experiment: Growth inhibition of human HL-60(TB) cells after 48 hrs by sulforhodamine B assay; type: functional; settings: HL-60, 48 h
NCI-H226 = experiment: Growth inhibition of human NCI-H226 cells after 48 hrs by sulforhodamine B assay; type: functional; settings: NCI-H226, 48 h
MDA-MB-435 = experiment: Growth inhibition of human MDA-MB-435 cells after 48 hrs by sulforhodamine B assay; type: functional; settings: MDA-MB-435, 48 h
SW-620 = experiment: Growth inhibition of human SW620 cells after 48 hrs by sulforhodamine B assay; type: functional; settings: SW-620, 48 h
SNB-75 = experiment: Growth inhibition of human SNB75 cells after 48 hrs by sulforhodamine B assay; type: functional; settings: SNB-75, 48 h
BT-549 = experiment: Growth inhibition of human BT549 cells after 48 hrs by sulforhodamine B assay; type: functional; settings: BT-549, 48 h
CCRF-CEM = experiment: Growth inhibition of human CCRF-CEM cells after 48 hrs by sulforhodamine B assay; type: functional
[2] = Growth inhibition of human […] cells after 48 hrs by sulforhodamine B assay; type: functional
SK-MEL-28 = experiment: Growth inhibition of human SK-MEL-28 cells after 48 hrs by sulforhodamine B assay; type: functional; settings: SK-MEL-28, 48 h
MCF7 = experiment: Growth inhibition of human MCF7 cells after 48 hrs by sulforhodamine B assay; type: functional; settings: MCF7, 48 h
PC-3 = experiment: Growth inhibition of human PC3 cells after 48 hrs by sulforhodamine B assay; type: functional; settings: PC-3, 48 h
786-0 = experiment: Growth inhibition of human 786-0 cells after 48 hrs by sulforhodamine B assay; type: functional; settings: 786-0, 48 h
EKVX = experiment: Growth inhibition of human EKVX cells after 48 hrs by sulforhodamine B assay; type: functional
A498 = experiment: Growth inhibition of human A498 cells after 48 hrs by sulforhodamine B assay; type: functional; settings: A498, 48 h
M14 = experiment: Growth inhibition of human M14 cells after 48 hrs by sulforhodamine B assay; type: functional; settings: M14, 48 h
SF-539 = experiment: Growth inhibition of human SF539 cells after 48 hrs by sulforhodamine B assay; type: functional; settings: SF-539, 48 h
CAKI-1 = experiment: Growth inhibition of human Caki1 cells after 48 hrs by sulforhodamine B assay; type: functional; settings: CAKI-1, 48 h
RXF 393 = experiment: Growth inhibition of human RXF393 cells after 48 hrs by sulforhodamine B assay; type: functional; settings: RXF 393, 48 h
SNB-19 = experiment: Growth inhibition of human SNB19 cells after 48 hrs by sulforhodamine B assay; type: functional; settings: SNB-19, 48 h
MDA-MB-231 = experiment: Growth inhibition of human MDA-MB-231 cells after 48 hrs by sulforhodamine B assay; type: functional; settings: MDA-MB-231, 48 h
NCI-H460 = experiment: Growth inhibition of human NCI-H460 cells after 48 hrs by sulforhodamine B assay; type: functional; settings: NCI-H460, 48 h
HT-29 = experiment: Growth inhibition of human HT-29 cells after 48 hrs by sulforhodamine B assay; type: functional; settings: HT-29, 48 h
UO-31 = experiment: Growth inhibition of human UO31 cells after 48 hrs by sulforhodamine B assay; type: functional; settings: UO-31, 48 h
Plasmodium falciparum [3] = experiment: Antimalarial activity after 72 hrs against chloroquine-resistant Plasmodium falciparum W2 infected erythrocytes by LDH assay; type: functional, organism-based; settings: W2, 72 h
Plasmodium falciparum [4] = experiment: Antimalarial activity after 72 hrs against chloroquine-sensitive Plasmodium falciparum D6 infected in erythrocytes by LDH assay; type: functional, organism-based; settings: D6, 72 h
SF-268 = experiment: Growth inhibition of human SF268 cells after 48 hrs by sulforhodamine B assay; type: functional; settings: SF-268, 48 h
OVCAR-4 = experiment: Growth inhibition of human OVCAR4 cells after 48 hrs by sulforhodamine B assay; type: functional; settings: OVCAR-4, 48 h
COLO 205 = experiment: Growth inhibition of human COLO205 cells after 48 hrs by sulforhodamine B assay; type: functional; settings: COLO 205, 48 h
NCI-H322M = experiment: Growth inhibition of human NCI-H322M cells after 48 hrs by sulforhodamine B assay; type: functional
NCI-H23 = experiment: Growth inhibition of human NCI-H23 cells after 48 hrs by sulforhodamine B assay; type: functional; settings: NCI-H23, 48 h
MOLT-4 = experiment: Growth inhibition of human MOLT4 cells after 48 hrs by sulforhodamine B assay; type: functional; settings: MOLT-4, 48 h
U-251 = experiment: Growth inhibition of human U251 cells after 48 hrs by sulforhodamine B assay; type: functional; settings: U-251, 48 h
K562 = experiment: Growth inhibition of human K562 cells after 48 hrs by sulforhodamine B assay; type: functional; settings: K562, 48 h
MDA-N = experiment: Growth inhibition of human MDA-N cells after 48 hrs by sulforhodamine B assay; type: functional
NCI-H522 = experiment: Growth inhibition of human NCI-H522 cells after 48 hrs by sulforhodamine B assay; type: functional; settings: NCI-H522, 48 h
A549 = experiment: Growth inhibition of human A549 cells after 48 hrs by sulforhodamine B assay; type: functional; settings: A549, 48 h
IGROV-1 = experiment: Growth inhibition of human IGROV1 cells after 48 hrs by sulforhodamine B assay; type: functional; settings: IGROV-1, 48 h
LOX IMVI = experiment: Growth inhibition of human LOXIMVI cells after 48 hrs by sulforhodamine B assay; type: functional
ACHN = experiment: Growth inhibition of human ACHN cells after 48 hrs by sulforhodamine B assay; type: functional
OVCAR-3 = experiment: Growth inhibition of human OVCAR-3 cells after 48 hrs by sulforhodamine B assay; type: functional; settings: OVCAR-3, 48 h
HOP-62 = experiment: Growth inhibition of human HOP62 cells after 48 hrs by sulforhodamine B assay; type: functional; settings: HOP-62, 48 h
T47D = experiment: Growth inhibition of human T47D cells after 48 hrs by sulforhodamine B assay; type: functional
UACC-62 = experiment: Growth inhibition of human UACC62 cells after 48 hrs by sulforhodamine B assay; type: functional; settings: UACC-62, 48 h
TK-10 = experiment: Growth inhibition of human TK10 cells after 48 hrs by sulforhodamine B assay; type: functional; settings: TK-10, 48 h
HCT-116 = experiment: Growth inhibition of human HCT116 cells after 48 hrs by sulforhodamine B assay; type: functional; settings: HCT-116, 48 h
SK-MEL-5 = experiment: Growth inhibition of human SK-MEL-5 cells after 48 hrs by sulforhodamine B assay; type: functional; settings: SK-MEL-5, 48 h
SK-MEL-2 = experiment: Growth inhibition of human SK-MEL-2 cells after 48 hrs by sulforhodamine B assay; type: functional; settings: SK-MEL-2, 48 h
[5] = Selectivity index, ratio of TC50 for african green monkey (Cercopithecus aethiops) Vero cells to IC50 for chloroquine-sensitive Plasmodium falciparum D6; type: toxicity, cell-based
NCI/ADR-RES = experiment: Growth inhibition of human NCI/ADR-RES cells after 48 hrs by sulforhodamine B assay; type: functional
UACC-257 = experiment: Growth inhibition of human UACC257 cells after 48 hrs by sulforhodamine B assay; type: functional; settings: UACC-257, 48 h
OVCAR-5 = experiment: Growth inhibition of human OVCAR5 cells after 48 hrs by sulforhodamine B assay; type: functional; settings: OVCAR-5, 48 h
[6] = Cytotoxicity against african green monkey Vero cells after 48 hrs by neutral red assay; type: cell-based; settings: chlorocebus sabaeus, read-out: TC50
[7] = Growth inhibition of human Hs 578T cells after 48 hrs by sulforhodamine B assay; type: functional

## C[C@H]1[C@@H](O[C@@H](C)CO[C@H]2O[C@@H]3O[C@@]4(C)CC[C@H]5[C@H](C)CC[C@@H]([C@H]2C)[C@@]35OO4)O[C@@H]2O[C@@]3(C)CC[C@H]4[C@H](C)CC[C@@H]1[C@@]24OO3
HCT-15
  GI50: < 10 nM
KM12
  GI50: < 10 nM
Malme-3M
  GI50: 37 nM
OVCAR-8
  GI50: 34 nM
HOP-92
  GI50: 63 nM
SN12C
  GI50: 25 nM
[1]
  selectivity ratio: > 15
SK-OV-3
  GI50: 23600 nM
SF-295
  GI50: 92 nM
HCC 2998
  GI50: 49 nM
HL-60
  GI50: < 10 nM
NCI-H226
  GI50: 226 nM
MDA-MB-435
  GI50: 27 nM
SW-620
  GI50: < 10 nM
SNB-75
  GI50: 332 nM
BT-549
  GI50: 58 nM
CCRF-CEM
  GI50: 18 nM
[2]
  GI50: < 10 nM
SK-MEL-28
  GI50: 16300 nM
MCF7
  GI50: < 10 nM
PC-3
  GI50: 9 nM
786-0
  GI50: 48 nM
EKVX
  GI50: 37 nM
A498
  GI50: 409 nM
M14
  GI50: 18 nM
SF-539
  GI50: 39 nM
CAKI-1
  GI50: 376 nM
RXF 393
  GI50: < 10 nM
SNB-19
  GI50: 104 nM
MDA-MB-231
  GI50: 80 nM
NCI-H460
  GI50: 27 nM
HT-29
  GI50: 12 nM
UO-31
  GI50: 31 nM
Plasmodium falciparum [3]
  IC50: 5100 nM
Plasmodium falciparum [4]
  IC50: 3800 nM
SF-268
  GI50: 65 nM
OVCAR-4
  GI50: 72 nM
COLO 205
  GI50: 12 nM
NCI-H322M
  GI50: 88 nM
NCI-H23
  GI50: 37 nM
MOLT-4
  GI50: < 10 nM
U-251
  GI50: < 10 nM
K562
  GI50: < 10 nM
MDA-N
  GI50: 42 nM
NCI-H522
  GI50: 54 nM
A549
  GI50: 18 nM
IGROV-1
  GI50: 130 nM
LOX IMVI
  GI50: 179 nM
ACHN
  GI50: 33 nM
OVCAR-3
  GI50: 46 nM
HOP-62
  GI50: 15900 nM
T47D
  GI50: < 10 nM
UACC-62
  GI50: 16 nM
TK-10
  GI50: 17900 nM
HCT-116
  GI50: < 10 nM
SK-MEL-5
  GI50: 29 nM
SK-MEL-2
  GI50: 62 nM
[5]
  selectivity ratio: > 21
NCI/ADR-RES
  GI50: 264 nM
UACC-257
  GI50: 21 nM
OVCAR-5
  GI50: 27 nM
[6]
  CC50 at 48 h: > 78000 nM
[7]
  GI50: 21 nM
